Source: ChEMBL document CHEMBL4028801, “A multifactorial approach to hepatobiliary transporter assessment enables improved therapeutic compound development” (Toxicol Sci, 2013)

Experiments:
[1] = Drug concentration at steady state in human at 400 to 1200 mg, po TID after 8 hrs; type: ADME, organism-based; conditions: in vivo, read-out: Css
[2] = target: ATP-binding cassette sub-family C member 3 (Homo sapiens, UniProt O15438); assay: Inhibition of human MRP3 overexpressed in Sf9 insect cell membrane vesicles assessed as uptake of [3H]-estradiol-17beta-D-glucuronide in presence of ATP and GSH measured after 10 mins by membrane vesicle transport assay; type: ADME, cell-based
[3] = target: T1, ATP-binding cassette sub-family C member 4 (Homo sapiens, UniProt O15439); assay: Inhibition of human MRP4 overexpressed in Sf9 cell membrane vesicles assessed as uptake of [3H]-estradiol-17beta-D-glucuronide in presence of ATP and GSH measured after 20 mins by membrane vesicle transport assay; type: ADME, cell-based
T1 sequence (O15439 whole entry): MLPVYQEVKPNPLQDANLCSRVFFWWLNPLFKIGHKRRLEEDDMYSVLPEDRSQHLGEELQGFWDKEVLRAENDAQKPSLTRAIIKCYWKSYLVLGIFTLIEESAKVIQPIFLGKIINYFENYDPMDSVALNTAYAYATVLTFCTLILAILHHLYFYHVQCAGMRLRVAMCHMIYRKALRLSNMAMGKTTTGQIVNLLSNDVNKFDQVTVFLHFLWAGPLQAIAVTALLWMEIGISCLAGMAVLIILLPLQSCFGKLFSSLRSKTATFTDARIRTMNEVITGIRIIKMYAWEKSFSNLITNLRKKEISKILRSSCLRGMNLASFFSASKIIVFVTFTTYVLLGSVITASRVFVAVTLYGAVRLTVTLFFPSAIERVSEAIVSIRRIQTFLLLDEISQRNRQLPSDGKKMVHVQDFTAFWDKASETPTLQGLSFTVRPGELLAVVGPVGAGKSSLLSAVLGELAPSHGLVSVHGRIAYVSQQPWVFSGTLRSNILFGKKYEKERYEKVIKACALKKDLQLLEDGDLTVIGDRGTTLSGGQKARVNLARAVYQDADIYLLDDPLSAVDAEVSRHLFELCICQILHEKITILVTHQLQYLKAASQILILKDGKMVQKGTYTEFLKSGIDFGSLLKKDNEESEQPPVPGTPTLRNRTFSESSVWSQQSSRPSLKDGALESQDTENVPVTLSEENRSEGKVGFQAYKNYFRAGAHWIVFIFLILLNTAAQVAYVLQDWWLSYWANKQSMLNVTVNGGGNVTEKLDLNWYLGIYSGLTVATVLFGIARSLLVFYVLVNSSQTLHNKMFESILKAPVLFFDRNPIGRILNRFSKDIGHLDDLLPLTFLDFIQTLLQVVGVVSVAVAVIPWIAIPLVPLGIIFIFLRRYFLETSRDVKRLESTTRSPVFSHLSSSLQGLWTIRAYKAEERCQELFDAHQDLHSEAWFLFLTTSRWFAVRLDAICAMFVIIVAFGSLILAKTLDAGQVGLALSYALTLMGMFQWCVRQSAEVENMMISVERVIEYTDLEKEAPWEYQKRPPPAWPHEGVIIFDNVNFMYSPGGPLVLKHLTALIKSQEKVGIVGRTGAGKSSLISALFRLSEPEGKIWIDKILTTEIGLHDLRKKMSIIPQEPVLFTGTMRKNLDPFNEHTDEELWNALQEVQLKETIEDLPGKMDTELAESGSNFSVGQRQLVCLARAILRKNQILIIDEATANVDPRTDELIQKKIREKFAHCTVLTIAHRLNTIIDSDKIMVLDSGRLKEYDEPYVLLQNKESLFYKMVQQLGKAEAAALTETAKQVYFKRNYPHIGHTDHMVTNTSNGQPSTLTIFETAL

[4] = AUC in human at 400 to 1200 mg, po TID after 8 hrs; type: ADME, organism-based; conditions: in vivo
[5] = target: ATP-binding cassette sub-family C member 2 (Homo sapiens, UniProt Q92887); assay: Inhibition of human MRP2 overexpressed in Sf9 cell membrane vesicles assessed as uptake of [3H]-estradiol-17beta-D-glucuronide in presence of ATP and GSH measured after 20 mins by membrane vesicle transport assay
[6] = Ratio of drug concentration at steady state in human at 80 to 600 mg, po QD after 24 hrs to IC50 for human BSEP overexpressed in Sf9 insect cells; type: ADME, organism-based; conditions: in vivo
[7] = AUC in human at 80 to 600 mg, po QD after 24 hrs; type: ADME, organism-based; conditions: in vivo
[8] = Ratio of drug concentration at steady state in human at 80 to 600 mg, po QD after 24 hrs to IC50 for human MRP4 overexpressed in Sf9 insect cells; type: ADME, organism-based; conditions: in vivo
[9] = Drug concentration at steady state in human at 80 to 600 mg, po QD after 24 hrs; type: ADME, organism-based; conditions: in vivo, read-out: Css
[10] = target: Bile salt export pump (Homo sapiens, UniProt O95342); assay: Inhibition of human BSEP overexpressed in Sf9 cell membrane vesicles assessed as uptake of [3H]-taurocholate in presence of ATP measured after 15 to 20 mins by membrane vesicle transport assay; type: ADME, cell-based
[11] = AUC in human at 800 mg, po TID after 8 hrs; type: ADME, organism-based; set-up: dose 800 mg, time < 8 hr, route oral; conditions: in vivo
[12] = Ratio of drug concentration at steady state in human at 800 mg, po TID after 8 hrs to IC50 for human MRP3 overexpressed in Sf9 insect cells; type: ADME, organism-based; conditions: in vivo
[13] = Drug concentration at steady state in human at 800 mg, po TID after 8 hrs; type: ADME, organism-based; conditions: in vivo, read-out: Css
[14] = Ratio of drug concentration at steady state in human at 800 mg, po TID after 8 hrs to IC50 for human BSEP overexpressed in Sf9 insect cells; type: ADME, organism-based; conditions: in vivo
[15] = Ratio of drug concentration at steady state in human at 75 to 100 mg, po QID after 6 hrs to IC50 for human MRP4 overexpressed in Sf9 insect cells; type: ADME, organism-based; conditions: in vivo
[16] = Drug concentration at steady state in human at 75 to 100 mg, po QID after 6 hrs; type: ADME, organism-based; conditions: in vivo, read-out: Css
[17] = Ratio of drug concentration at steady state in human at 75 to 100 mg, po QID after 6 hrs to IC50 for human BSEP overexpressed in Sf9 insect cells; type: ADME, organism-based; conditions: in vivo
[18] = AUC in human at 75 to 100 mg, po QID after 6 hrs; type: ADME, organism-based; conditions: in vivo
[19] = AUC in human at 60 to 100 mg/m2, iv via infusion for 1 hr every 3 weeks measured after 1 hr; type: ADME, organism-based; set-up: time < 1 hr, route intravenous; conditions: in vivo
[20] = Drug concentration at steady state in human at 60 to 100 mg/m2, iv via infusion for 1 hr every 3 weeks measured after 1 hr; type: ADME, organism-based; conditions: in vivo, read-out: Css
[21] = Ratio of drug concentration at steady state in human at 60 to 100 mg/m2, iv via infusion for 1 hr every 3 weeks measured after 1 hr to IC50 for human BSEP overexpressed in Sf9 insect cells; type: ADME, organism-based

Chain of Bile salt export pump (O95342 whole entry): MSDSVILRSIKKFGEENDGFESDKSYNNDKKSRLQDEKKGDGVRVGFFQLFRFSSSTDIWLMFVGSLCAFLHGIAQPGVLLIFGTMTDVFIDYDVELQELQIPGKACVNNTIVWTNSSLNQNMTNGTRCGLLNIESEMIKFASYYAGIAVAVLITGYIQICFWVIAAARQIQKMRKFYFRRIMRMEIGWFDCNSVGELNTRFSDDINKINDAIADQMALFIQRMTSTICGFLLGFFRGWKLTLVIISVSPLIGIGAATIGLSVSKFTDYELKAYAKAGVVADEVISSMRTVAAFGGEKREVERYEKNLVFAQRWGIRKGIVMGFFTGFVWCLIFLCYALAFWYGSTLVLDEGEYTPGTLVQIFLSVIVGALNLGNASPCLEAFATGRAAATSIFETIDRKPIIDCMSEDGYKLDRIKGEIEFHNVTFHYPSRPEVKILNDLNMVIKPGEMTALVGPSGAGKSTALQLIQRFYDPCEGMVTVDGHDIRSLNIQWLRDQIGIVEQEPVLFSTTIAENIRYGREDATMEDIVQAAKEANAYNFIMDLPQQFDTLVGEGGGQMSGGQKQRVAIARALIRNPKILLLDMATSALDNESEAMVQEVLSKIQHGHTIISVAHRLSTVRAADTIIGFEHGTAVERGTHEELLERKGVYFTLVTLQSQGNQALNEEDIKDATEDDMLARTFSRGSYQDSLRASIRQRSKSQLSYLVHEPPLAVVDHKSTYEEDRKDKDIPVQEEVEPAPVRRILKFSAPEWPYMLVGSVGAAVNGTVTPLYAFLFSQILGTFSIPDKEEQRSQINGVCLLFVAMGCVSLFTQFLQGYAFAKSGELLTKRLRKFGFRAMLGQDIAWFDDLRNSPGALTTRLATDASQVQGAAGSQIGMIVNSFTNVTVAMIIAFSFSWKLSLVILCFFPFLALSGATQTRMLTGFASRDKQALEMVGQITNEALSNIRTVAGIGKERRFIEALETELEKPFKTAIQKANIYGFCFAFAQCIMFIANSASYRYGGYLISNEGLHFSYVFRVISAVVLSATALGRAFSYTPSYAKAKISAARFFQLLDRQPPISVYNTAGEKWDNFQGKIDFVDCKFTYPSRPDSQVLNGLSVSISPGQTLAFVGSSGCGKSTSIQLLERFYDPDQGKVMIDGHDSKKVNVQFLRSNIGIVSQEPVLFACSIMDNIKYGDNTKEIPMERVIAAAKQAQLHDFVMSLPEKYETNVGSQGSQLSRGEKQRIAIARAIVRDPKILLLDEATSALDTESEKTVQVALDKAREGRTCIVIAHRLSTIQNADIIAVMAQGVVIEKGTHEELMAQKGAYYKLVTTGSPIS
Chain of ATP-binding cassette sub-family C member 3 (O15438 whole entry): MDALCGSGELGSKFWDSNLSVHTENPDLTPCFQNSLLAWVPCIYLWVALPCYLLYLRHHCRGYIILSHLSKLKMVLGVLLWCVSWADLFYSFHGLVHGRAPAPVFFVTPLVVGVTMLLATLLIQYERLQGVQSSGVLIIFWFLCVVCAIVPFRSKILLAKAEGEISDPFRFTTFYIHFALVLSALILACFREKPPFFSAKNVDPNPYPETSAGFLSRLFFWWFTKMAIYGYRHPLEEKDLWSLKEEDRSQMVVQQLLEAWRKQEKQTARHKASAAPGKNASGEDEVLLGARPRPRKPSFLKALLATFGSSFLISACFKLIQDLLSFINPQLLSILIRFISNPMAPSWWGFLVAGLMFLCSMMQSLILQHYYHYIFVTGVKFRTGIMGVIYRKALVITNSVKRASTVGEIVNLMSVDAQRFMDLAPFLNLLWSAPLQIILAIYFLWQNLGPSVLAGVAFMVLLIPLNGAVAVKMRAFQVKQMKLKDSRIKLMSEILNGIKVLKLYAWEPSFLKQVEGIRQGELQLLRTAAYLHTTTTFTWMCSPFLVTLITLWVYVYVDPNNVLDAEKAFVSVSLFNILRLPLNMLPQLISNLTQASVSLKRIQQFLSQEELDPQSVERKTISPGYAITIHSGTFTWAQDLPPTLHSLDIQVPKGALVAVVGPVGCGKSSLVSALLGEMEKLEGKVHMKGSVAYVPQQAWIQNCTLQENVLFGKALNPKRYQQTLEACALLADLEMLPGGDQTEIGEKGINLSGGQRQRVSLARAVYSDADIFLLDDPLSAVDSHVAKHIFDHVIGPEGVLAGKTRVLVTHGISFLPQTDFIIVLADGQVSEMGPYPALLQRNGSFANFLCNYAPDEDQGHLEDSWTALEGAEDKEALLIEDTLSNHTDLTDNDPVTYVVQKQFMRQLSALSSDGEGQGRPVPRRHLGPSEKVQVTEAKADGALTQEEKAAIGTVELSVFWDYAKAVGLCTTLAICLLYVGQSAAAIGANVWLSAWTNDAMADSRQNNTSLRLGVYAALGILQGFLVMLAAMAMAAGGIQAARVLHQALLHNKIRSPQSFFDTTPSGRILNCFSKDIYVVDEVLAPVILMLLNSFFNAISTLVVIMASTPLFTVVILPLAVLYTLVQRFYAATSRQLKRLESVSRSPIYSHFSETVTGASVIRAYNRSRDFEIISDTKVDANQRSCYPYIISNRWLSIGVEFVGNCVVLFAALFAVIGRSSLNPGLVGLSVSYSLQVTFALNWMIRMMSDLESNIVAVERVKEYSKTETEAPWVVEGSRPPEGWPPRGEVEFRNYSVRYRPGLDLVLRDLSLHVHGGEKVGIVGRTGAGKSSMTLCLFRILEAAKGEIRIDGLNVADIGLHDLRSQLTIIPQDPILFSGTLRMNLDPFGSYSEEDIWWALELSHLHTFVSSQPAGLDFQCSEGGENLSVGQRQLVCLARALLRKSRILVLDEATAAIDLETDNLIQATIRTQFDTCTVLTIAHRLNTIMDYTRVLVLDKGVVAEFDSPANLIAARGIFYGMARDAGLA
Chain of ATP-binding cassette sub-family C member 2 (Q92887 whole entry): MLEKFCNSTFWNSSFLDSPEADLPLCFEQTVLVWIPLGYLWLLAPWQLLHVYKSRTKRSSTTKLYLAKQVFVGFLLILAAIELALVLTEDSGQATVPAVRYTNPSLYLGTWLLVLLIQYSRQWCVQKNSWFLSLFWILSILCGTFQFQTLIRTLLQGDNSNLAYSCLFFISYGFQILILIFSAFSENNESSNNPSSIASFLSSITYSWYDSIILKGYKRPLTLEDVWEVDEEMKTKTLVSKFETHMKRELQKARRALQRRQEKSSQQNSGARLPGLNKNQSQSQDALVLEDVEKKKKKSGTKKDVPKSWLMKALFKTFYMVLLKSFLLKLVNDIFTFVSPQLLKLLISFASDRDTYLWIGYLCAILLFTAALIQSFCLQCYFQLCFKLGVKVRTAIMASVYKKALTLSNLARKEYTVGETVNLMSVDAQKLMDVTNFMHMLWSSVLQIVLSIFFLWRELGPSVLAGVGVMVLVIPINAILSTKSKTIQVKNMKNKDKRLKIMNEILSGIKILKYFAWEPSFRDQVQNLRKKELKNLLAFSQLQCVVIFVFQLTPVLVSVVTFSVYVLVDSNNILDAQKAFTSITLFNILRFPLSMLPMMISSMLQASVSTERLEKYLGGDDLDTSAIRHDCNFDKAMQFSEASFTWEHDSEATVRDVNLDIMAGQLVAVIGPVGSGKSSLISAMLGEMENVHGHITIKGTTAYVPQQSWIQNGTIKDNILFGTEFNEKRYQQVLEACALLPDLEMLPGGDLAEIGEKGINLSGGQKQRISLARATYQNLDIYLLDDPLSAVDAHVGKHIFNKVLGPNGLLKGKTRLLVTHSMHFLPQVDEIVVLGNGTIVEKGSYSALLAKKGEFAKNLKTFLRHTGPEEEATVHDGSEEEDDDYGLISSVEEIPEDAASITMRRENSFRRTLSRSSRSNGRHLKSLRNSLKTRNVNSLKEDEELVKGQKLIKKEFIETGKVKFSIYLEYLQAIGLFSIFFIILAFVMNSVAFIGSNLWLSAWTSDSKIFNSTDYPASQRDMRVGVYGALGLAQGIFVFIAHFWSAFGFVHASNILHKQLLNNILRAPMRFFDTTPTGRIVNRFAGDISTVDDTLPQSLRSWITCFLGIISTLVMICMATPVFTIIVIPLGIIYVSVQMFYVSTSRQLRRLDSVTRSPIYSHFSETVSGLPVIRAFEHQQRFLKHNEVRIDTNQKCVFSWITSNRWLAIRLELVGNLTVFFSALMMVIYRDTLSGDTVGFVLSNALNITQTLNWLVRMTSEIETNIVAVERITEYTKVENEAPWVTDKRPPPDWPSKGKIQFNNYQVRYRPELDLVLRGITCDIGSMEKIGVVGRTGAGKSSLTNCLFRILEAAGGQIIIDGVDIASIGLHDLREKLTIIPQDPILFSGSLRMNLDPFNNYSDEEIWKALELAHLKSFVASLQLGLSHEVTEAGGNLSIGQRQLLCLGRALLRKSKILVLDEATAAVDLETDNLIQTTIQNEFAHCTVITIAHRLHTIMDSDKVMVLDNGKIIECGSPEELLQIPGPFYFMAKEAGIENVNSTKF

| SMILES | IC50 [2] [µM] | IC50 [3] [µM] | IC50 [5] [µM] | IC50 [10] [µM] | also measured |
| --- | --- | --- | --- | --- | --- |
| CC(C)(C)NC(=O)[C@@H]1C[C@@H]2CCCC[C@@H]2CN1C[C@@H](O)[C@H](Cc1ccccc1)NC(=O)[C@H](CC(N)=O)NC(=O)c1ccc2ccccc2n1 | 42 | 59 | > 133 |  | concentration at 8 h [1]: 1.21 µM; AUC at 8 h [4]: 9.69 µM·h |
| COc1ccc(/C=C/C(=O)Nc2ccccc2C(=O)O)cc1OC | > 133 | 1 | > 133 | 41.5 | Ratio [6]: 0.286; AUC at 24 h [7]: 284 µM·h; Ratio [8]: 11.849; concentration at 24 h [9]: 11.8 µM |
| CC(C)(C)NC(=O)[C@@H]1CN(Cc2cccnc2)CCN1C[C@@H](O)C[C@@H](Cc1ccccc1)C(=O)N[C@H]1c2ccccc2C[C@H]1O.O | 83 | > 133 | > 133 |  | AUC at 8 h [11]: 45.1 µM·h; Ratio [12]: 0.068; concentration at 8 h [13]: 5.64 µM; Ratio [14]: 0.266 |
| OCCN(CCO)c1nc(N2CCCCC2)c2nc(N(CCO)CCO)nc(N3CCCCC3)c2n1 [DIPYRIDAMOLE] | > 133 | 8.3 | > 133 | 4 | Ratio [15]: 0.137; concentration at 6 h [16]: 1.14 µM; Ratio [17]: 0.303; AUC at 6 h [18]: 6.82 µM·h |
| CC(=O)O[C@@]12CO[C@@H]1C[C@H](O)[C@@]1(C)C(=O)[C@H](O)C3=C(C)[C@@H](OC(=O)[C@H](O)[C@@H](NC(=O)OC(C)(C)C)c4ccccc4)C[C@@](O)([C@@H](OC(=O)c4ccccc4)[C@H]21)C3(C)C [DOCETAXEL ANHYDROUS] | > 133 | > 133 | > 133 | 41 | AUC at 1 h [19]: 6.51 µM·h; concentration at 1 h [20]: 6.52 µM; Ratio [21]: 0.16 |
